Where two headings read alike, the source gives them in different places.
Legend:
[1] = Cyclic voltammetry scan rate study: diffusion coefficient (Randles-Sevcik) and electron transfer rate constant (Nicholson); type: physicochemical
Description: To further verify the correlation between the reaction rate of the catholyte/anolyte pair with the performance and stability of the RFBs, the kinetic parameters, diffusion coefficient (D), and electron transfer rate constant (k0), were quantified.
Electrochemical kinetics studies were conducted by CV measurements and Nicholson analysis. […] The Randles-Sevcik equation, described in Elgrishi et al, A Practical Beginner's Guide to Cyclic Voltammetry. Journal of Chemical Education 2018, 95 (2), 197-206, was used to calculate the diffusion coefficient (D in cm^2 s^−1). A linear fit (ip=slope x v½) yields the slope of the cathodic and anodic peaks from which the D was obtained.
The electron transfer rate constant (k0) of K4[Fe(CN)6]/TRYP-SO3 redox couple was estimated by using the Nicholson method using the D values previously obtained, as described in Nicholson, R. S., Theory and Application of Cyclic Voltammetry for Measurement of Electrode Reaction Kinetics. Analytical Chemistry 1965, 37 (11), 1351-1355.
The electron transfer rate constant (k0) of BQDS/TRYP-SO3 redox couple and TRYP-NH2 was estimated by using the Nicholson method using the D values previously obtained, as described in Nicholson, R. S., Theory and Application of Cyclic Voltammetry for Measurement of Electrode Reaction Kinetics. Analytical Chemistry 1965, 37 (11), 1351-1355.
First, a solution of 1.0 mM of K4[Fe(CN)6] with 1.0 M of KCl in 10 mL of Milli-Q water was used as catholyte. Second, the catholyte was prepared by dissolving 1.0 mM of BQDS into 10 mL of 1.0 M KCl solution. All the solutions were degassed with nitrogen for 10 min prior to analysis. An atmosphere of nitrogen was maintained during the voltammetric experiments, and the samples were run at a scan rate of 10-100 mV s^−1 range. All the CV experiments were carried out at T=293 K.

[2] = Cyclic voltammetry: oxidation/reduction potentials vs. Ag/AgCl; type: physicochemical
From the text: Klimovich, A. A., Popov, A. M., Krivoshapko, O. N., Shtoda, Y. P. & Tsybulsky, A. V. A comparative assessment of the effects of alkaloid tryptanthrin, rosmarinic acid, and doxorubicin on the redox status of tumor and immune cells. Biophysics 62, 588-594 (2017) and in Jahng, Y. Progress in the studies on tryptanthrin, an alkaloid of history. Arch. Pharm. Res. 36, 517-535 (2013)), the electrochemical behavior of the compounds was initially performed by measuring cyclic voltammetry (CV) of TRYP at different pH values. Cyclic voltammograms (CVs) are presented in FIG. 3 and the relevant electrochemical data including the oxidation (Epa) and reduction (Epc) potentials are summarized in table 1.
Cyclic voltammetry (CV) experiments were carried out using an Autolab potentiostat/galvanostat PGSTAT204 running with NOVA 2.1 software and a three-electrode system in a one-compartment electrochemical cell of capacity 10 mL. A glassy carbon electrode (GCE) (d=3 mm) was the working electrode, glassy carbon (GC) (d=1.6 mm) wires the counter electrode and Ag/AgCl (3.0 M KCl) the reference electrode. The GCE was polished with appropriate polishing pads using first aluminium oxide with particle size 0.3 μm and then aluminium oxide particle with size 0.075 μm (polish in a […] motion) before each electrochemical experiment. After polishing, the electrode was rinsed thoroughly with Milli-Q water and the electrode was sonicate in a container with Milli-Q water and ethanol (50:50 v/v) for 5 minutes. Following this mechanical treatment, the GCE was placed in buffer supporting electrolyte and differential pulse voltammograms were recorded until a steady state baseline voltammogram was obtained.
Depending on the pH experiments different electrolytes were used, for pH=0 (1.0 M H2SO4) solution, for pH=7 (1.0 M KCl) solution and pH =13 (1.0 M NaOH) solution. Potassium ferricyanide ([…]) (1.0 mM solution) with 1.0 M of the proper electrolyte in 10 mL of Milli-Q water was used as standard and also degassed with nitrogen for 10 minutes prior to analysis. Lastly, to measure the OCV for BQDS, 1.0 mM was dissolved into 1.0 M KCl solution. An atmosphere of nitrogen was maintained during the voltammetric experiments, and the samples were run at a scan rate of 50 mV s^−1.

[3] = acidic medium, reported studies; cited from earlier work
[4] = in 1.0 M H2SO4; cited from earlier work
[5] = Solubility in supporting electrolyte / water; type: physicochemical; conditions: 1.0 M KCl solution, saline or isotonic; in 1.0 M KCl
[6] = 1.0 mM in 1.0 M KCl, Nicholson method, T = 293 K
[7] = neutral pH, 1.0 mM in 1.0 M KCl

Nc1ccc2nc3n(c(=O)c2c1)-c1ccccc1C3=O [TRYP-NH2, 2-aminoindolo[2,1-b]quinazoline-6,12-dione]
Electron transfer rate constant (k0) [1, 6]: 0.264 cm/s
Redox potential vs. Ag/AgCl [2, 7]: −0.45 V

O=C1c2cc(S(=O)(=O)O)ccc2-n2c1nc1ccccc1c2=O [TRYP-SO3H, 6,12-dioxo-6,12-dihydroindolo[2,1-b]cquinazoline-8-sulfonic acid]
Diffusion coefficient (D) [1]: 6.98e-08 cm/s
Electron transfer rate constant (k0) [1]: 0.000362 cm/s
Redox potential vs. Ag/AgCl [2]: −0.46 V
Oxidation potential Epa^1 (first peak) ([2]; pH 13): Epa^1 = 0.225 V
Oxidation potential Epa^2 (second peak) ([2]; pH 13): Epa^2 = 0.738 V
Oxidation potential Epa^3 (third peak) ([2]; pH 13): Epa^3 = 1.178 V
Reduction potential Epc^1 (first peak) ([2]; pH 13): Epc^1 = −0.325 V
Reduction potential Epc^2 (second peak) ([2]; pH 13): Epc^2 = −0.802 V
Reduction potential Epc^3 (third peak) ([2]; pH 13): Epc^3 = −0.930 V

O.O=S(=O)([O-])c1cc(O)c(O)c(S(=O)(=O)[O-])c1.[Na+].[Na+] [BQDS, 4,5-dihydroxy-1,3-benzenedisulfonic acid disodium salt monohydrate, reference compound]
Electrode potential [3]: 0.76 V
Solubility in sulfuric acid [4]: 650 mM
Diffusion coefficient (D) ([1]; 1.0 mM in 1.0 M KCl, 10-100 mV s^−1, T = 293 K): 5.38e-07 cm/s
Electron transfer rate constant (k0) [1, 6]: 0.000271 cm/s
solubility [5]: 1280 mM
Electrode potential in KCl ([2]; in KCl, neutral pH): 0.94 V
Redox potential vs. Ag/AgCl [2, 7]: 0.48 V

Reference: patent publication US20230279011A1, “WATER-SOLUBLE TRYPTHANTRIN DERIVATIVES FOR REDOX FLOW BATTERIES” (UNIVERSIDADE DE COIMBRA, priority 2020, published 2023)
